Here are results for one compound from PMC8362126, “Proteolysis Targeting Chimera (PROTAC) for Macrophage Migration Inhibitory Factor (MIF) Has Anti‐Proliferative Activity in Lung Cancer Cells” (Angewandte Chemie (International Ed. in English), 2021).

“Also recorded” adds a separate entry of the source.

In one assay the test system is A549 cells. The experiment in a line: CyQUANT cell proliferation assay. The note with it: concentrations up to 20 μM, 72 hours. The assay is classed as cell-based, human. On the procedure: S8. Cell growth, cell cycle and pERK signaling study
Cell proliferation was measured with the CyQUANT® Direct Cell Proliferation Assay Kit (Thermo Fisher, #C35011). A549 cells were cultured in 96-well plates at a density of 1,000 cells/well and treated with different concentrations of MIF PROTAC (0.02-20 μM) for 72 h.
Cells were incubated with detection reagent (100 μL) for 60 min at 37 °C with 5% CO2. The fluorescence of each well was read at 485/535nm by plate reader (BioTek).
Figure S8. Cells were seeded with a density of 1000 cells per well in a 96-well plate. After overnight incubation, the cells were treated with various concentration of MD13 for 72 hours.
The resulting cells were quantified by CyQUANT® cell proliferation assays and compared with the vehicle (DMSO) control (n=3). […]
(also on this page, place not known: (0.02 -20 CO 2. (20 µM) 4 (20 µM) µM 20 µM 0.01 µM 0.08 µM 0.74 µM 6.7 µM 20 µM 0 50 100 Cell (%) H441 n.s. * * ** *** * n.s. MD15 96 -well MD13 proliferation control 96 -well round - 2 3) […]
(1 picture or pasted object on this page, not shown here)

A further assay relates to A549 cell spheroids. Description: 3D tumor spheroid assay. The assay is classed as cell-based, human. The note with it: 5 μM, 12 days. On the procedure:
A 3D spheroid model was employed to investigate the effect of longer term MD13 treatment in a more complex model for tumor growth. The 3D spheroid model was established using A549 cancer cells by a method adapted from Feng et al.[48] The spheroids were grown over a 12‐day period in absence or presence of PROTAC MD13. Each spheroid was prepared from about 1000 A549 cells. After three‐day incubation, these spheroids were treated with 1, 2, or 5 μM of MD13 with 72 hours intervals over 12 days. Spheroid growth was monitored by measuring the diameter and this was compared to day 0 of the treatment. The tumor spheroids in MD13 treated groups were significant smaller compared to the control group (Figure 5 B and Figure S9). With continuous exposure to 1, 2, or 5 μM of MD13 for 12 days, the growth of the spheroid tumor volume was inhibited by 42 %, 53 %, and 81 % compared with control group, respectively. […]
Tumor spheroid assay. A549 cells (1000 cells/well) were seeded onto a 96-well round-bottomed ultra low attachment plate (Corning). After 2 days of incubation without disturbance, the spheroid was treated with indicated compound every 3 days. […]
(1 picture or pasted object on this page, not shown here) […]
inverted microscope (Nikon Eclipse Ti) connected with a NIS-elements software. The data were analyzed and plotted with Graphpad Prism8. […]
cells were seeded in an ultralow attachment 96-well round-bottomed plate (1000 cells/well) to generate tumor spheroids (a single spheroid per well). After initiation, the spheroids were treated with different compounds at the indicated concentrations every three days. DMSO was used as vehicle control. The day of the first treatment was indicated as day 0. (A) Representative images were obtained at the indicated intervals using an inverted microscope. Scale bar: 500 μm. (B) Analysis was carried out using NIS-Elements AR 3.1 software, and growth curves were obtained relative to the untreated spheroids (day 0) and plotted with GraphPad Prism 8. Values are shown as means ± SD (n = 3 spheroids/time point, **p < 0.01 vs control). […]

The next assay relates to ERK phosphorylation. The experiment in a line: ERK phosphorylation by western blot. The note with it: A549, 2 μM; 3 and 4 for 24 h, MD15 for 6, 24 or 48 h. Format: cell-based, human. As for the experimental part:
The effect of treatment with MIF‐directed PROTAC MD13 on MIF‐related signaling pathways was investigated by assessment of ERK phosphorylation using western blot analysis. […] Thus treatment with the MIF‐directed PROTAC MD13 inhibits ERK phosphorylation as a MIF‐related signaling event. […]
ERK signaling pathway study. A549 cells (2x10^5 cells per well) were seeded into each well of a 6-well plate with 2 mL RPMI-1640 medium containing 10% FBS (Costar Europe, Badhoevedorp, The Netherlands), and 1% penicillin/streptomycin solution (Corning). After overnight culturing, the cells were treated with MD13, MD15, or DMSO for the time indicated.
After that, cells were lysed by RIPA buffer containing 1× PhosSTOP and protease inhibitor (PI) cocktail (Roche, Mannheim, Germany). The BCA Protein Assay Kit (Pierce, Rockford IL, USA) was used to determine the protein concentration. 30 µg protein was separated by a pre-cast 10% NuPAGE Bis-Tris gel (Invitrogen, USA) and then transferred to a polyvinylidene difluoride (PVDF) membrane. After blocking with 5% of skimmed milk for 1 hour at room temperature and incubation with the appropriate primary antibody (pERK, #9101, Cell Signaling, 1:1000; GAPDH, #97166, Cell Signaling, 1:10000) overnight at 4 °C, the membrane was treated with an HRP-conjugated secondary goat anti-rabbit antibody (#P0448, Dako, 1:2000) or rabbit anti-mouse antibody (#P0260, Dako, 1:2000) at room temperature for 1 hour.
The protein bands were visualized with enhanced chemiluminescence (ECL) solution (GE Healthcare). The figures were quantified with imageJ software based on grayscale. […]

For the next assay, the target named is T1, MIF (Homo sapiens, UniProt P14174).
T1 sequence (P14174 2-115 limits assumed): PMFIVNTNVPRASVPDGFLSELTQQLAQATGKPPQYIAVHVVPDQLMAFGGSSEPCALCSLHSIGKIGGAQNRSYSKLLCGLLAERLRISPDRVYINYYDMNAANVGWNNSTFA
Description: MIF degradation in A549 cells, western-blot. The assay is classed as cell-based. Set-up: endogenous in cells; host or cells: A549 (ATCC CCL-185). The note with it: A549 cells. As for the experimental part: The concentration dependence of PROTAC MD13‐mediated induction of MIF degradation in A549 cells was investigated using western‐blot. […] The MIF levels were normalized to the vehicle treated control and plotted to the respective MD13 concentrations. This provided a DC50 of around 100 nM and a maximal degradation of around 90–95 % at concentrations higher than 1 μM (Figure 3 B). The DC50 of MD13 measured by ELISA assay was about 200 nM (Figure 3 C), which is in line with the result from western‐blot. […]
Cell lysates were prepared using the protocol described above. About 10−40 μg of total protein was mixed with the 4× Laemmli Loading Dye (250 mM Tris, pH 6.8, 40% glycerol, 5% SDS, 0.005% bromophenol blue, 4% β-mercaptoethanol) and heated at 95−100 °C for 5 min and loaded onto a 12% Bis-Tris gel (Bio-Rad Laboratories, #4561084) and proteins were separated at 120V. Afterwards, proteins were transferred to polyvinylidene fluoride (PVDF) membranes, subsequently non-specific antibody binding was blocked with 5% nonfat dry milk (BIO-RAD, #1706404) in TBST buffer and incubated overnight at 4 °C with one of the following primary antibodies: anti-MIF (1:1000, ThermoFisher, #PA5-27343 ) or anti-β-actin (1:10000 Cell Signalling, #8457). The membranes were further incubated with a goat anti-rabbit HRP-conjugated secondary antibody (1:2000, DAKO, p0448) for 2 h at room temperature. Proteins were visualized with an ECLTM Prime Western Blotting System (GE Healthcare #RPN2232). The immunoblot was generated by ChemiDoc MP Imaging Systems (Bio-Rad) and analyzed by the ImageJ software. […]
As a control, the same experiment was repeated and analyzed by a western-blot assay (Figure 3B). The potency estimated from the Western blot assay was 1 µM (Figure 3C), which is consistent with the result from the ELISA assay. The “Hook effect” […]

Regarding `Nc1cccc2c1C(=O)N(C1CCC(=O)NC1=O)C2=O` (centres unmarked) [compound 4, pomalidomide], the “effect on cell proliferation” value with A549 cells was “no effect; also recorded: no or little effect”. Moreover, the “influence on spheroid tumor growth” value in the assay on A549 cell spheroids is on record as “no significant influence”. Also, in the assay on ERK phosphorylation, the “effect on pERK levels” value was “no significant decrease”. For the same compound, the “rescue of MD9 mediated MIF degradation” value at MIF (2 hours pretreatment (1 100 µM, 3 50 µM, 4 50 µM, Bortezomib), then 10 µM MD9 12 h) is reported as “partial to complete rescue; also recorded: rescued”. In addition, the “rescue of MD13 mediated MIF degradation” value at MIF (co-treatment (Bortezomib) or 1 hour pretreatment (3, 4) with MD13) is “rescued MIF from degradation; also recorded: able to abolish the MD13 triggered degradation”.
